Activity calls are given as the source filed them. No cut-off for these calls is given here.
How the values were obtained:
Adenosine receptor A2b = target: T1, Adenosine receptor A2b (Homo sapiens, UniProt P29275); assay: Displacement of [3H]PSB-603 from human recombinant adenosine A2B receptor expressed in CHO cells after 75 mins by liquid scintillation counting analysis; type: cell-based
T1 sequence (P29275 whole entry): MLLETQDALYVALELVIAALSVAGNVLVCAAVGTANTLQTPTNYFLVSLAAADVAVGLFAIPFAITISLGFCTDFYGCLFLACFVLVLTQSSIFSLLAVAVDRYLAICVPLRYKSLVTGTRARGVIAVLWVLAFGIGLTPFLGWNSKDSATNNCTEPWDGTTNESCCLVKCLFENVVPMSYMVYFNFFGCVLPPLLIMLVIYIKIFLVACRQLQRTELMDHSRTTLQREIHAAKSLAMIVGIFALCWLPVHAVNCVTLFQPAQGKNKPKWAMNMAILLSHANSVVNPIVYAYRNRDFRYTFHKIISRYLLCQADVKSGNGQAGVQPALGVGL

Adenosine receptor A1 [1] = target: T2, Adenosine receptor A1 (Homo sapiens, UniProt P30542); assay: Displacement of [3H]CCPA from human recombinant adenosine A1 receptor expressed in CHO cells after 90 mins by liquid scintillation counting analysis; type: cell-based
T2 sequence (P30542 whole entry): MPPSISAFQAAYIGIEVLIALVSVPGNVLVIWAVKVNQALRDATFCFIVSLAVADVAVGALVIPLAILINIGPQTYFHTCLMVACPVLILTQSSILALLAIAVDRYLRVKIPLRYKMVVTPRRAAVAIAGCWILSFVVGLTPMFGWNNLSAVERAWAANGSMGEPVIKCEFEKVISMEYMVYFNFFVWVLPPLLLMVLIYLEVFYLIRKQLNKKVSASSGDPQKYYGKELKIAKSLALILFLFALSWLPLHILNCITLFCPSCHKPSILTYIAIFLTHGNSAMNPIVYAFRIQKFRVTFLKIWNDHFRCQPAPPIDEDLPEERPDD

Adenosine receptor A3 [2] = target: T3, Adenosine receptor A3 (Homo sapiens, UniProt P0DMS8); assay: Displacement of [3H]PSB-11 from human recombinant adenosine A3 receptor expressed in CHO cells after 60 mins by liquid scintillation counting analysis; type: cell-based
T3 sequence (P0DMS8 whole entry): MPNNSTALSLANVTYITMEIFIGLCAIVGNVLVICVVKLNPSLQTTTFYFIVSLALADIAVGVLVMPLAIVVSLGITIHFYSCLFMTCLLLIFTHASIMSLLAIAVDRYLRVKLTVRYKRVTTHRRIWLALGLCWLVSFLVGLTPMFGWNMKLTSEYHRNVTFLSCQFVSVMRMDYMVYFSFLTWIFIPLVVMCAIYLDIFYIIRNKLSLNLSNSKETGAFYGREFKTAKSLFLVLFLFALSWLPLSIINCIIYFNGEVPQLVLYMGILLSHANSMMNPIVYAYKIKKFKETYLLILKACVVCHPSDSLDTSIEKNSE

Adenosine receptor A2a [3] = target: T4, Adenosine receptor A2a (Homo sapiens, UniProt P29274); assay: Displacement of [3H]MSX2 from human recombinant adenosine A2A receptor expressed in CHO cells after 30 mins by liquid scintillation counting analysis; type: cell-based
[4] = Selectivity ratio of IC50 for MAO-B in mitochondria-enriched Sprague-Dawley rat liver fractions to IC50 for recombinant human MAO-B
Adenosine receptor A2a [5] = target: Adenosine receptor A2a (Rattus norvegicus, UniProt P30543); assay: Displacement of [3H]MSX2 from adenosine A2A receptor in rat brain striatal membranes after 30 mins by liquid scintillation counting analysis; type: cell membranes, Membrane
[6] = target: T5, Amine oxidase [flavin-containing] B (Rattus norvegicus, UniProt P19643); assay: Inhibition of MAO-B in mitochondria-enriched Sprague-Dawley rat liver fractions using p-tyramine as substrate incubated for 30 mins prior to substrate addition measured for 45 mins by amplex red reagent-based microplate fluorescence reader analysis
T5 sequence (P19643 whole entry): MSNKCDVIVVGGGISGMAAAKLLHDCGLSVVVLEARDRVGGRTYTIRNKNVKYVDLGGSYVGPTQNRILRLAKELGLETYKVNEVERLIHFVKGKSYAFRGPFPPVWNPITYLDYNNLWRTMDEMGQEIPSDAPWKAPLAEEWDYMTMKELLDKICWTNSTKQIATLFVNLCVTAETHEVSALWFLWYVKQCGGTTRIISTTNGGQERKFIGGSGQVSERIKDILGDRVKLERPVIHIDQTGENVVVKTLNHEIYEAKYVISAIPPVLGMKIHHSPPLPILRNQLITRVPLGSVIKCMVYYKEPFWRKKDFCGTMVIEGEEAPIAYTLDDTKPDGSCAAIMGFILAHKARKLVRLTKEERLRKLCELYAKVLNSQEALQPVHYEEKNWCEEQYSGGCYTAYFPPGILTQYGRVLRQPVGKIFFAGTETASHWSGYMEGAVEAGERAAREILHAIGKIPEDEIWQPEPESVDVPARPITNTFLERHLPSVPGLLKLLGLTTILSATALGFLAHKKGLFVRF

[7] = target: T6, Amine oxidase [flavin-containing] B (Homo sapiens, UniProt P27338); assay: Inhibition of recombinant human MAO-B expressed in baculovirus-infected insect cells using p-tyramine as substrate incubated for 30 mins prior to substrate addition measured for 45 mins by amplex red reagent-based microplate fluorescence reader analysis; type: cell-based
T6 sequence (P27338 whole entry): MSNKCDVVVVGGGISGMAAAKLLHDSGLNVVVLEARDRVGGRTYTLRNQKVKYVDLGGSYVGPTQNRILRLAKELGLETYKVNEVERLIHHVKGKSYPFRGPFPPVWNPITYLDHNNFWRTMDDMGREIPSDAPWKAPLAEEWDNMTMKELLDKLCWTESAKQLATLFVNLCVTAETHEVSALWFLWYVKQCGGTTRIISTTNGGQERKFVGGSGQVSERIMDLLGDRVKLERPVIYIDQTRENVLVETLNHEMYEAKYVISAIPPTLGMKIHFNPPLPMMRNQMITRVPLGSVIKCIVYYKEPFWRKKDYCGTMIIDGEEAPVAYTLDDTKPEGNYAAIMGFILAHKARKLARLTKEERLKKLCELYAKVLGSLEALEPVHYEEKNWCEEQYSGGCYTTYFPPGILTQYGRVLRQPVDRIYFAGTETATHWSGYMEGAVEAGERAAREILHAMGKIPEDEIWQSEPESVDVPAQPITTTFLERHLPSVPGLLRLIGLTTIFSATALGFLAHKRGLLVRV

[8] = Selectivity ratio of Ki for human recombinant adenosine A1 receptor to Ki for adenosine A1 receptor in rat brain cortical membranes; type: cell membranes; conditions: Membrane
Adenosine receptor A1 [9] = target: T7, Adenosine receptor A1 (Rattus norvegicus, UniProt P25099); assay: Displacement of [3H]CCPA from adenosine A1 receptor in rat brain cortical membranes after 90 mins by liquid scintillation counting analysis; type: cell membranes, Membrane
T7 sequence (P25099 whole entry): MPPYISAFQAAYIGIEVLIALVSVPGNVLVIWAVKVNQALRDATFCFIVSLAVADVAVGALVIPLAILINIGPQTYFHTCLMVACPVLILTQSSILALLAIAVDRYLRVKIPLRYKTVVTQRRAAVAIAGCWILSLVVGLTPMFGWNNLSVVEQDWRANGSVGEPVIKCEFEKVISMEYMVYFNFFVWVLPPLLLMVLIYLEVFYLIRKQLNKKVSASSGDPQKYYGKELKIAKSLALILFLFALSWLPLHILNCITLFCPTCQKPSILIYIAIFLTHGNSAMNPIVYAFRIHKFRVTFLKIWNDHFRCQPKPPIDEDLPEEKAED

[10] = target: T6, Amine oxidase [flavin-containing] B; assay: Ratio of selegiline IC50 to compound IC50 for recombinant human MAO-B
[11] = Stability of the compound in DMSO at 1 mg/ml under daylight condition at 20 degC after 24 hrs by LC-MS analysis; type: physicochemical
Adenosine receptor A1 [12] = target: T2, Adenosine receptor A1; assay: Displacement of [3H]CCPA from human recombinant adenosine A1 receptor expressed in CHO cells
Adenosine receptor A3 [13] = target: T3, Adenosine receptor A3; assay: Displacement of [3H]PSB-11 from human recombinant adenosine A3 receptor expressed in CHO cells; type: cell-based
Homo sapiens [14] = species: Homo sapiens; assay: Selectivity ratio of Ki for human recombinant adenosine A2B receptor to Ki for human recombinant adenosine A2A receptor
[15] = target: T6, Amine oxidase [flavin-containing] B; assay: Reversible inhibition of human MAO-B using p-tyramine as substrate at IC80 incubated for 22 mins followed by substrate addition measured for 5 hrs by fluorescence assay
Homo sapiens [16] = species: Homo sapiens; assay: Selectivity ratio of Ki for human recombinant adenosine A1 receptor to Ki for human recombinant adenosine A2A receptor
[17] = Selectivity ratio of Ki for adenosine A2A receptor in rat brain striatal membranes to Ki for human recombinant adenosine A2A receptor; type: cell membranes; conditions: Membrane
Homo sapiens [18] = species: Homo sapiens; assay: Selectivity ratio of Ki for human recombinant adenosine A3 receptor to Ki for human recombinant adenosine A2A receptor
Adenosine receptor A2a [19] = target: T4, Adenosine receptor A2a; assay: Antagonist activity at human adenosine A2A receptor expressed in CHO cells assessed as decrease in cAMP accumulation up to 20 uM preincubated for 10 mins measured after 60 mins by liquid scintillation counting analysis in presence of [3H]cAMP; type: functional, cell-based
Adenosine receptor A2a [20] = target: T4, Adenosine receptor A2a; assay: Antagonist activity at human adenosine A2A receptor expressed in CHO cells assessed as decrease in NECA-induced cAMP accumulation up to 20 uM incubated for 10 mins followed by NECA induction for 15 mins measured after 60 mins by liquid scintillation counting analysis in presence of [3H]cAMP; type: functional, cell-based
[21] = target: T6, Amine oxidase [flavin-containing] B; assay: Competitive inhibition of human MAO-B using p-tyramine as substrate at 50 to 300 nM using p-tyramine as substrate incubated for 30 mins prior to substrate addition measured for 45 mins by Lineweaver-burk plot analysis; conditions: 0.75 h
[22] = Stability of the compound in DMSO at 1 mg/ml under daylight condition at 20 degC after 7 days by LC-MS analysis; type: physicochemical; conditions: 168 h

T4 sequence (P29274 whole entry): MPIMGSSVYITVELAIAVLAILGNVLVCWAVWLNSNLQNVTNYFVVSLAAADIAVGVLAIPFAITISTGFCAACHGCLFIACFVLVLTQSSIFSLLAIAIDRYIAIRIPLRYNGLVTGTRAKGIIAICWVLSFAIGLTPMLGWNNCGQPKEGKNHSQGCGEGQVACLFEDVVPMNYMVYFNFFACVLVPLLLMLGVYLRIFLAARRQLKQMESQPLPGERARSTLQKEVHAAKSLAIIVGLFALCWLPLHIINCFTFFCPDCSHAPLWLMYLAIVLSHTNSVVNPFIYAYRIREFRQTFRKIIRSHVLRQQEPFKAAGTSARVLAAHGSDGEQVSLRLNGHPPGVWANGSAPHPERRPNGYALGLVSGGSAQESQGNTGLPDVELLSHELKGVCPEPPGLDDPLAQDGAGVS
Sequence of Adenosine receptor A2a (Rattus norvegicus, UniProt P30543) (P30543 whole entry): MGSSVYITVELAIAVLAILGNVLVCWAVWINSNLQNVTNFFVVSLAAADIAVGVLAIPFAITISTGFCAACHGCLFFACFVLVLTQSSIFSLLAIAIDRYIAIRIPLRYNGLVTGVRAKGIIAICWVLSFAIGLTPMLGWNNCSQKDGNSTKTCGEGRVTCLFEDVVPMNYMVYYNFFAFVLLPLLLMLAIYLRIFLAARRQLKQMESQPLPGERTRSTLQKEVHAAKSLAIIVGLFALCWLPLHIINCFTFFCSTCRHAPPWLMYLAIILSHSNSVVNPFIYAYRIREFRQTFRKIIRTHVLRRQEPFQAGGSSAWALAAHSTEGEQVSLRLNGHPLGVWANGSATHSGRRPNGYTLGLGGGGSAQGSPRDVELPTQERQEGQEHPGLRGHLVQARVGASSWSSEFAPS

Row | SMILES | Ki (Adenosine receptor A2b) [nM] | Ki (Adenosine receptor A1 [1]) [nM] | Ki (Adenosine receptor A3 [2]) [nM] | Ki (Adenosine receptor A2a [3]) [nM] | Ratio IC50 [4] | Ki (Adenosine receptor A2a [5]) [nM] | IC50 [6] [nM] | IC50 [7] [nM] | Ki (Adenosine receptor A1 [9]) [nM] | Ratio Ki (Homo sapiens [14]) | inhibition (INH) [15] | Ratio Ki (Homo sapiens [16]) | Ratio Ki (Homo sapiens [18]) | other results
1 | COc1cccc(/C=C/CC(=O)Nc2nc3ccccc3c(=O)s2)c1 | ≥ 1000 | 500 | 115 | 91.8 | 1.4 | 317 | 2020 | 238 | 11.2 | – | – | – | – | Ratio Ki [8]: < 45
2 | O=C(COc1cccc(Cl)c1)Nc1nc2ccccc2c(=O)s1 | > 1000 | – | > 1000 | – | 400 | > 10000 | 661 | 1.63 | > 10000 | – | – | – | – | Ratio IC50 [10]: 4
3 | Cn1c(=O)c2c(nc(/C=C/c3cccc(Cl)c3)n2C)n(C)c1=O | – | > 10000 | > 1000 | – | – | – | 38.5 | – | – | – | – | – | – | Stability [11]: Unstable
4 | CCn1c(=O)c2c(nc(/C=C/c3ccc(OC)c(OC)c3)n2C)n(CC)c1=O [ISTRADEFYLLINE] | – | – | – | – | – | – | – | – | – | – | – | – | – | Ki (Adenosine receptor A1 [12]): 2830 nM; Ki (Adenosine receptor A3 [13]): > 3000 nM
5 | COc1cccc(CCC(=O)Nc2nc3ccccc3c(=O)s2)c1 | 225 | 1370 | 173 | 64.9 | 1.4 | 294 | 621 | 95.3 | 367 | 4 | Active | 21 | 3 | Ratio Ki [17]: > 4
6 | O=C(CCCc1ccccc1)Nc1nc2ccccc2c(=O)s1 | > 1000 | 2500 | > 1000 | 39.5 | 1.4 | 423 | 186 | 34.9 | 229 | > 25 | Active | 63 | > 25 | Activity (Adenosine receptor A2a [19]): Active; Activity (Adenosine receptor A2a [20]): Active; inhibition (INH) [21]: Active; Stability [22]: Stable
7 | O=C(C/C=C/c1cccc(Cl)c1)Nc1nc2ccccc2c(=O)s1 | > 1000 | 562 | > 1000 | – | 1.4 | ≥ 10000 | 840 | > 1000 | 11.4 | – | – | – | – | Ratio Ki [8]: < 45
8 | C[C@H](NCc1ccc(OCc2cccc(F)c2)cc1)C(N)=O [SAFINAMIDE] | – | – | – | – | – | – | 25.8 | – | – | – | Active | – | – | –
9 | O=C(CCc1ccccc1)Nc1nc2ccccc2c(=O)s1 | 365 | 1050 | 390 | 80.9 | 1.4 | 103 | 42.7 | 17.6 | 422 | 5 | Active | 13 | 5 | –
10 | O=C(Nc1nc2ccccc2c(=O)s1)c1ccc(C(=O)N2CCN(Cc3ccc(Cl)cc3)CC2)cc1 | > 1000 | 4370 | > 1000 | 44.3 | 1.4 | 488 | – | > 10000 | – | > 22 | – | 100 | > 22 | –
11 | O=C(CCCc1ccccc1)Nc1nc2sccc2c(=O)s1 | 361 | 364 | > 1000 | 82.5 | 1.4 | 693 | 291 | 69.7 | 35.2 | 4 | Active | 4 | 12 | –

— ChEMBL document CHEMBL2380255, “Dual targeting of adenosine A(2A) receptors and monoamine oxidase B by 4H-3,1-benzothiazin-4-ones” (J Med Chem, 2013)
